Source: patent US20110263539A1, “SHIP 1 MODULATOR COMPOUNDS” (THE UNIVERSITY OF BRITISH COLUMBIA, priority 2006, published 2011)

Columns and labels:
[1] = system: neutrophil myeloperoxidase (MPO) activity; test: Mouse acute cutaneous anaphylaxis model (Assay 5); format: in vivo, CD1 mice; details: topical on ear, DNFB
Experimental: Assay 5) Mouse acute cutaneous anaphylaxis model. 6-8 week old CD1 mice
(§1) (University of British Columbia Animal Facility, Vancouver, BC) were sensitized to the hapten DNP by cutaneous application of 25 μL of 0.5% dinitrofluorobenzene (DNFB) (Sigma, Oakville, Ont) in acetone to the shaved abdomen of mice for two consecutive days. 24 hrs later, test substances (dissolved in 10 μL of 1:2 DMSO:MeOH) were painted on the right ear while the left ear received vehicle control. 30 min after drug application, DNFB was applied to both ears to induce mast cell degranulation. A 6 mm punch was taken from the ear and immediately frozen on dry ice for subsequent determination of neutrophil myeloperoxidase (MPO) activity.
as §1, with “Mouse acute cutaneous anaphylaxis model. 6-8 week old CD1 mice (University” for “(University”, “activity. Compound 100's ability to inhibit cutaneous anaphylaxis was assessed.” for “activity.”
Anaphylactic or allergic responses are mediated by allergen-induced degranulation of pre-sensitized mast cells. The mouse ear edema/cutaneous anaphylaxis model involves pre-sensitization of mice with the haptenizing agent dinitrofluorobenzene (DNFB). One week later the allergic reaction is elicited by painting DNFB onto the ears of the mice. The efficacy of potential anti-inflammatory compounds is tested by topical application of the test substance to one ear and comparing the resulting ear edema or inflammation of the two ears.

[2] = system: LNCaP cells; test: PKB activation in LNCaP cells; format: cell-based, human; details: doses up to 60 μM
Experimental: The ability of AQX-016A to inhibit activation of PIP3-dependent downstream signalling proteins in SHIP^+/+ vs SHIP^−/− cells was assessed. LPS stimulation of macrophages results in PKB phosphorylation. […] Similar protein loading was confirmed by reblotting with either antibodies to PKB or Grb2. […] Thus, AQX-016A inhibits PIP3-regulated intracellular signal transduction events in SHIP expressing hematopoietic cells, but not in SHIP-deficient hematopoietic or non-hematopoietic cells.

[3] = system: J774.1a macrophage cells; test: Macrophage TNF-α production (Assay 2); format: cell-based; details: 10 μg/mL test compound, 100 ng/mL LPS, ELISA; further: key: a ‘+’ indicates a positive result for desired activity; a ‘−’ indicates a negative result for desired activity
Experimental: Assay 2) Macrophage TNF-α production. J774.1a macrophage cells were treated with 10 μg/mL of test compound dissolved in solvent (e.g. cyclodextran) for 40 minutes prior to the addition of 100 ng/mL LPS. Culture supernatants were collected after 2 hr and 5 hr for TNF-α determination by ELISA.

[4] = system: luciferase expressing OPM2 cells; test: In vivo Multiple Myeloma (MM) assay (Assay 8); design: species or system Mice; details: 50 mg/kg every 3 days, subcutaneous oil depot
Experimental: Assay 8) In vivo Multiple Myeloma (MM) assay. Mice were inoculated with at two sites each with 3×10^6 luciferase expressing OPM2 cells suspended in 50 μL of growth medium and 50 μL of Matrigel basement membrane matrix (Becton Dickenson; Bedford, Mass.). Tumors were injected subcutaneously in the upper and lower flanks of the mice and allowed to establish for 2 weeks. After 2 weeks, a test compound or control vehicle was administered in a subcutaneous oil depot at a dose of 50 mg/kg every 3 days.
Tumors were measured using bioluminescence imaging on the Xenogen IVIS 200. Mice received intra-peritoneal injections of 200 μL of D-luciferin at 3.75 mg/mL in sterile PBS. Mice were then anesthetized with isofluorane and imaged 15 minutes post-injection of luciferin. Quantification of tumor size was performed using the Living Image™ software.
MM Xenograft murine model. Mice were inoculated with at two sites each with 3×10^6 luciferase expressing OPM2 cells suspended in 50 μL of growth medium and 50 μL of Matrigel basement membrane matrix (Becton Dickenson; Bedford, Mass.). Tumors were injected subcutaneously in the upper and lower flanks of the mice and allowed to establish for 2 weeks. […]
Tumors were measured using bioluminescence imaging on the Xenogen IVIS 200. […] Quantification of tumor size was performed using the Living Image™ software. […]

[5] = Initial toxicology studies; format: in vivo; details: data not shown
From the text: A novel paradigm for inhibiting PI3K signaling through activation of the phosphatases that negatively regulate this pathway is provided. SHIP is a particularly good target for immune/hematopoietic disorders because of its restricted expression to hematopoietic cells. Because the relative activity of phosphatases present in a cell will influence the efficacy of kinase inhibitors, as discussed by Knight and Shokat, SHIP agonists may also be used to potentiate the activation of PI3K inhibitors and promote tissue targeting of PI3K inhibitors to the ematopoietic/immune cell compartment.

[6] = system: J774.1a macrophage cells; test: Macrophage TNF-α NO assay (Assay 3); format: cell-based; details: 10 μg/ml test compound, LPS, 24 hr, Griess reagent; further: key: a ‘+’ indicates a positive result for desired activity; a ‘−’ indicates a negative result for desired activity
Experimental: Assay 3) Macrophage TNF-α NO assay. J774.1a macrophage cells were treated with 10 μg/ml of test compound dissolved in solvent for 40 minutes prior to the addition of LPS. Culture supernatants were collected after 24 hr. for determination of NO concentration using the Griess reagent.

[7] = system: MM cell lines; test: In vitro Multiple Myeloma (MM) assay (Assay 7); format: cell-based; further: key: a ‘+’ indicates a positive result for desired activity; a ‘−’ indicates a negative result for desired activity
Experimental: Assay 7) In vitro Multiple Myeloma (MM) assay. The ability of SHIP activators to reduce tumor cell survival was assessed in MM cell lines treated with the test compound. The lines OPM1, OPM2, MM.1S and RPMI 8226 were plated at a density of 1×10^5 cells/mL in 200 μL of medium with various concentrations of the test compound, and viable cell numbers were determined on day 3 and day 5 by trypan blue exclusion. The lines RPMI 8226 and U266 were plated at a density of 1×10^6 cells/mL in 250 μL of medium with various concentrations of the test compound. At day 4, the medium of each culture was replaced by fresh medium containing the same concentration of test compound. At day 7, the viable cell number of each culture was determined by trypan blue exclusion.
MM cell lines were cultured in 96 well plates seeded with 3×10^4 cells suspended in 200 μL of medium along with various concentrations of test compound (and associated cyclodextran vehicle control), with LY294002 serving as a positive control in the experiments. After 24-48 hrs of culture, […] of [3H]-thymidine (GE Healthcare, Baie D'Urfe, Canada) being added for the final 8 hours. Cells were harvested and DNA associated radioactivity was measured via liquid scintillation counting using a Wallac Microbeta counter (Perkin-Elmer; Boston, Mass.).
The ability of SHIP activators to reduce tumor cell survival was assessed in multiple myeloma (MM) cell lines treated with Compound 100 or AQX-016A. The lines OPM1, OPM2, MM.1S and RPMI 8226 were plated at a density of 1×10^5 cells/mL in 200 μL of medium with various concentrations of Compound 100, and viable cell numbers were determined on day 3 and day 5 by trypan blue exclusion. The lines RPMI 8226 and U266 were plated at a density of 1×10^6 cells/mL in 250 μL of medium with various concentrations of AQX-016A. At day 4, the medium of each culture was replaced by fresh medium containing the same concentration of AQX-016A. At day 7, the viable cell number of each culture was determined by trypan blue exclusion. Experiments were performed in triplicate.
Proliferation (DNA synthesis) assays. Proliferation was measured by measuring incorporation of [^3H]-thymidine into cells. MM cell lines were cultured in 96 well plates seeded with 3×10^4 cells suspended in 200 μL, of medium along with various concentrations of Compound 100 or AQX-016A (and associated cyclodextran vehicle control), with LY294002 serving as a positive control in the indicated experiments. After 24-48 hrs of culture, 1 μCi of [^3H]-thymidine (GE Healthcare, Baie D'Urfe, Canada) being added for the final 8 hours. Plates were frozen, which also aided in cell lysis, to terminate the experiments. Cells were then harvested onto glass fibre filters using an automatic cell harvester (TomTech; Orange, Conn.) and DNA associated radioactivity was measured via liquid scintillation counting using a Wallac Microbeta counter (Perkin-Elmer; Boston, Mass.). Wells were set up in triplicate and data is expressed as mean+/−SEM.

Cc1cc(O)c(O)c2c1[C@]1(C)CCC3C(C)(C)CCC[C@]3(C)[C@H]1C2 (stereo partly shown) [AQX-016A]
Assay Number 5: Mouse acute cutaneous anaphylaxis model [1]: +
PKB phosphorylation [2]: no effect
Assay Number 2: Macrophage TNF-α production [3]: +
Assay Number 8: In vivo Multiple Myeloma (MM) assay [4]: +
peripheral blood cell counts or bone marrow progenitor numbers [5]: do not significantly affect
Assay Number 3: Macrophage NO [6]: +
Assay Number 7: In vitro Multiple Myeloma (MM) assay [7]: +
